Laboratory results reported in PMC8607422, “Development of a novel TLR8 agonist for cancer immunotherapy” (Molecular Biomedicine, 2020).

Legend:
[1] = tested on: EMT6 mouse breast cancer cells; assay: EMT6 mouse syngeneic breast cancer model; assay type: in vivo; details: AZD-1775 30 mg/kg po bid
Method: All the animal experiments were conducted following Association for Assessment and Accreditation of Laboratory Animal Care (AAALAC)‘s guideline. The animal protocols were approved by the Institutional Animal Care and Use Committee (IACUC). Cell lines were purchased from credible vendors including ATCC. After tumor cell inoculation, the animals were checked daily for morbidity and mortality. At the time of routine monitoring, the animals were checked for any effects of tumor growth and treatment on the animals’ well-being such as mobility, food and water consumption, body weight gain/loss, matting and any other abnormalities. Clinical observations were recorded. Tumor volumes were measured twice a week in two dimensions using a caliper and the volume was expressed in mm^3 using the formula: V = 0.5 a × b^2 where a and b are the long and short diameters of the tumor, respectively. The procedures of dosing as well as tumor and body weight measurement were conducted in a laminar flow cabinet.
For EMT6 experiments, EMT6 mouse breast cancer cells were cultured in vitro as a monolayer culture in RPMI1640 medium supplemented with 10% fetal bovine serum and 1% penicillin/streptomycin at 37°C in an atmosphere of 5% CO2 in air. […] The cells growing in the exponential growth phase were harvested and counted for tumor inoculation. […]

[2] = target: T1, hTLR7 (Homo sapiens, UniProt Q9NYK1); assay: HEK-Blue hTLR7 SEAP reporter agonist assay; assay type: cell-based; details: positive control
T1 construct: host or cells: HEK-Blue hTLR7
T1 sequence (Q9NYK1 27-1049): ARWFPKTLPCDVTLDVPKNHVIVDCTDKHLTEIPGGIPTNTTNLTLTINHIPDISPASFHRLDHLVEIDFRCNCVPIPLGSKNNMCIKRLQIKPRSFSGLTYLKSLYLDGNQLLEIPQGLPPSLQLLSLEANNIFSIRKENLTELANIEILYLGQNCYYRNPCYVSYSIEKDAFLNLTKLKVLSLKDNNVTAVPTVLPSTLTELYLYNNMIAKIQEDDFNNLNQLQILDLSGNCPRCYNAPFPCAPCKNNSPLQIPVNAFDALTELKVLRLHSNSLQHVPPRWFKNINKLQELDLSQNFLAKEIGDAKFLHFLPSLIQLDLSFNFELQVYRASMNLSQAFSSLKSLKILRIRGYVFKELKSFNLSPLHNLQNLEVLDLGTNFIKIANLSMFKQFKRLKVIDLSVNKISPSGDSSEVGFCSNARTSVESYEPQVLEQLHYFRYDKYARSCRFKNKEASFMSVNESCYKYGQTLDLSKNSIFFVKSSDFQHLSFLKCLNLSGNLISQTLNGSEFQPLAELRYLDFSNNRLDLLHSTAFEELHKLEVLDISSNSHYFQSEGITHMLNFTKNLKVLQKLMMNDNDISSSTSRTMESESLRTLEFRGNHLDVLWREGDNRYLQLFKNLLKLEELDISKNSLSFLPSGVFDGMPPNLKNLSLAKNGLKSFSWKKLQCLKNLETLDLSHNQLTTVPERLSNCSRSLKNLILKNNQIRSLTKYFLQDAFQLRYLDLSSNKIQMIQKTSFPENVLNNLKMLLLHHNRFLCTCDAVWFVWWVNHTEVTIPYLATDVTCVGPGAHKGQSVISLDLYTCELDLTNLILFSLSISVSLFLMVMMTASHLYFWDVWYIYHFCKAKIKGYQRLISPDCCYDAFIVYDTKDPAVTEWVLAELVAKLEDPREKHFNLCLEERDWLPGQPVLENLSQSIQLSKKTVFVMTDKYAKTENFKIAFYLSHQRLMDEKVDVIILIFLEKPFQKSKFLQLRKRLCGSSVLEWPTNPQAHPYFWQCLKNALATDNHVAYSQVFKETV
Excerpt: HEK-Blue™ hTLR4, 7, 8 and 9 cell lines were purchased from InvivoGen (Hong Kong). The cells express the human TLR gene and NF-κB/AP-1-inducible SEAP (secreted embryonic alkaline phosphatase) reporter gene. SEAP levels produced upon TLR stimulation can be determined by QUANTI-Blue™. In the cell-based assay, the main reagents used were QUANTI-Blue™ (InvivoGen) and ATPlite 1 Step (Perkin Elmer). The main instruments used were the microplate reader SpectraMax 340PC (Molecular Device) and Envision (Perkin Elmer). Motolimod and DN052 were synthesized in house. […] The compounds were in 10 mM stock solution in DMSO and stored at − 20°C. The compounds were serially diluted in the concentration range from 0.5 nM to 15 μM (up to 50 μM in the hTLR4, hTLR7 and hTLR9 assays) and added to 96-well plates. DMSO was used as the negative control. LPS-EK, R848, motolimod and ODN2006 were used as the positive control for TLR4, 7, 8 and 9, respectively. The cells were cultured and treated with the compounds at 37°C, 5%CO2 for 24 h. […] After 1.5 h of incubation, the optical density was measured using the spectrophotometer at 650 nm in the microplate reader of SpectraMax 340PC. The cell viability of each well was determined using ATPlite 1 Step following the manufacturer’s instruction. The luminescence signal in each well of plates was measured in the microplate reader of Envision.

Structure (SMILES) | response of EMT6 model to single agent [1] | activity of positive control in TLR7 assay [2]
C=CCn1c(=O)c2cnc(Nc3ccc(N4CCN(C)CC4)cc3)nc2n1-c1cccc(C(C)(C)O)n1 [AZD-1775] | largely resistant | 
CCOCc1nc2c(N)nc3ccccc3c2n1CC(C)(C)O [R848] |  | active
